The text below walks through data of article PMC5927802, “Pharmacokinetics, safety, and tolerability of the 2‐ and 3‐direct‐acting antiviral combination of AL‐335, odalasvir, and simeprevir in healthy subjects” (Pharmacology Research & Perspectives, 2018).

A short description of series [1]: Plasma pharmacokinetics, Phase I open‐label two‐group fixed‐sequence drug‐drug interaction study. As to conditions: for AUC0‐24 h LSM ratio / C max LSM ratio: point estimate (90% CI); for AUC: AUC0‐24 h; for Tmax: T max. The text has this: This was an open‐label, two‐group, fixed‐sequence study conducted at a single study center in Rennes, France (Biotrial). A two‐group, fixed‐sequence study design was chosen as this was deemed to be the most efficient way to evaluate the effect of simeprevir with/without odalasvir on AL‐335; and vice versa (Group 1) and the effect of odalasvir with/without simeprevir on AL‐335; and vice versa (Group 2). Thus, this study design had the potential to gather both 2‐way and 3‐way DDIs. For both groups, the study consisted of a screening period, a study period, and two follow‐up visits. The study was authorized by the French National Agency for the Safety of Medicine and Health Products (ANSM) and was approved by an Independent Ethics Committee (Comité de Protection des Personnes [CPP] Ouest VI, Brest, France; Reference CPP Ouest 6–CPP 888/MS1), and was conducted in accordance with the principles of the Declaration of Helsinki and International Conference on Harmonization. All subjects provided written informed consent to participate. Drug and molecular target nomenclature in this manuscript conforms to the British Journal of Pharmacology's Concise Guide to Pharmacology 2017/18.19
Subjects in Group 1 received simeprevir 150 mg QD on days 4‐23, odalasvir 150 mg (loading dose) on day 14, odalasvir 50 mg QD on days 15‐23, and AL‐335 800 mg QD on days 1‐3, 11‐13, and 21‐23. Subjects in Group 2 received odalasvir 150 mg (loading dose) on day 4, odalasvir 50 mg QD on days 5‐23, simeprevir 150 mg QD on days 14‐23, and AL‐335 800 mg QD on days 1‐3, 11‐13, and 21‐23. […] A minimum of 10 days was considered sufficient for both odalasvir and simeprevir to reach steady‐state.
Subjects were assigned sequentially to Group 1 then to Group 2 after confirming eligibility.
As this was an […] pharmacokinetic study, blood samples for pharmacokinetic analysis were collected predose and at 0.25, 0.5, 1, 2, 3, 4, 6, 8, 10, 12, and 24 hours postdose on days 3, 13, and 23 for determination of AL‐335, ALS‐022399, and ALS‐022227 plasma concentrations (Groups 1 and 2). For simeprevir, blood samples for determination of simeprevir plasma concentrations were taken at the same time points but on days 10, 13, 20, and 23 (Group 1) or days 20 and 23 (Group 2). Blood samples for the determination of odalasvir plasma concentrations were collected predose and at 1, 3, 4, 5, 6, 7, 8, 9, 10, 12, 16, and 24 hours postdose on days 20 and 23 (Group 1) or days 10, 13, 20, and 23 (Group 2), with two further samples also collected on the day 7 and day 28 follow‐up assessments (both groups).
Plasma concentrations of AL‐335, ALS‐022399, ALS‐022227, odalasvir, and simeprevir were determined using validated liquid chromatography‐tandem mass spectrometry methods. Dichlorvos solution was added to blood samples from AL‐335‐treated subjects to stabilize AL‐335 and its metabolites (25 μL of 5 mmol/L dichlorvos into 1 mL blood). The lower limit of quantification was 1 ng/mL, 2 ng/mL, and 5 ng/mL for AL‐335, ALS‐022399, and ALS‐022227, respectively, 1 ng/mL for odalasvir, and 2 ng/mL for simeprevir.
Pharmacokinetic analyses were performed on all subjects with available profiles who received at least one dose of study drug without any protocol deviation affecting pharmacokinetic evaluation. […] Secondary parameters were last observed plasma concentration, apparent elimination half‐life, time of the maximum observed plasma concentration (T max), and time to last measurable plasma concentration (T last).

Series [2] concerns CYPs 1A2, 2B6, 2C8, 2C9, 2C19, 2D6, and 3A4. Also noted: method as in data on file. As to conditions: ref data on file; cited from earlier work.
Series [3] relates to host polymerases, including the mitochondrial RNA polymerase. As to conditions: cited from earlier work.
Series [4] has as its system breast cancer resistance protein (BCRP). To be noted: ref data on file; cited from earlier work.
The test system of another series is OATP1B1/1B3. To be noted: cited from earlier work.
A further series has as its system P‐glycoprotein. To be noted: cited from earlier work.
The conditions of series [5]: in vivo; cited from earlier work.
Where [6] appears, read: Group 1 Day 3, AL‐335 alone, mean (SD).
Where [7] appears, read: Group 1 Day 13, AL‐335 + SMV, mean (SD).
[8] abbreviates: Group 1 Day 23, AL‐335 + ODV + SMV versus AL‐335 alone.
The mark [9] stands for this setting: Group 1 Day 23, AL‐335 + ODV + SMV, mean (SD).
Setting [10] is: Group 2 Day 3, AL‐335 alone, mean (SD).
Where [11] appears, read: Group 2 Day 13, AL‐335 + ODV, mean (SD).
[12] abbreviates: Group 2 Day 23, AL‐335 + ODV + SMV versus AL‐335 alone.
Setting [13] is: Group 2 Day 23, AL‐335 + ODV + SMV, mean (SD).

Like-named read-outs stand apart in the source and are kept apart here.

For orientation: AUC means concentration integrated over time. By Tmax is commonly meant the time at which the peak concentration occurs. One may read the half-life as how long it takes for the measured level to halve. Consider `CC(C)OC(=O)[C@H](C)N[P@](=O)(OC[C@@]1(F)O[C@@H](n2ccc(=O)[nH]c2=O)[C@](C)(O)[C@@H]1O)Oc1ccccc1` [AL‐335], for which the “difference in T max between any of the treatment combinations” value in series [1] (AL‐335 alone or with odalasvir and/or simeprevir) was “No clinically relevant difference”. The C last in series [1] (setting [6]) is reported as 6 (8) ng/mL; in series [1] (setting [7]), 3 (2) ng/mL; in series [1] (setting [9]), 3 (1) ng/mL; in series [1] (setting [10]), 3 (2) ng/mL; in series [1] (setting [11]) it was 2 (1) ng/mL; in series [1] (setting [13]) it was 2 (1) ng/mL. In addition, the C max in series [1] (setting [6]) was 162 (77) ng/mL; in series [1] (setting [7]), 376 (186) ng/mL; in series [1] (setting [9]), 747 (340) ng/mL; in series [1] (setting [10]) it was 151 (72) ng/mL; in series [1] (setting [11]), 516 (259) ng/mL; in series [1] (setting [13]), 950 (472) ng/mL. For the same compound, the T last was 6.00 (4.00‐6.00) h in series [1] (Group 1 Day 3, AL‐335 alone, median (range)); 8.00 (6.00‐10.00) h in series [1] (Group 1 Day 13, AL‐335 + SMV, median (range)); 8.00 (6.00‐10.08) h in series [1] (Group 1 Day 23, AL‐335 + ODV + SMV, median (range)); 6.00 (4.00‐8.00) h in series [1] (Group 2 Day 3, AL‐335 alone, median (range)); 8.00 (4.00‐12.00) h in series [1] (Group 2 Day 13, AL‐335 + ODV, median (range)); 10.00 (8.00‐12.03) h in series [1] (Group 2 Day 23, AL‐335 + ODV + SMV, median (range)). For the same compound, the figures for the “AUC0‐24 h LSM ratio” value in series [1] (setting [8]) and in series [1] (setting [12]) were 6.92 (5.46‐8.77) and 8.23 (6.26‐10.82), respectively. Moreover, the “C max LSM ratio” value in series [1] (setting [8]) is recorded as 4.60 (3.68‐5.75); in series [1] (setting [12]), 6.30 (4.93‐8.05). Besides, the AUC was 295 ng·h/mL in series [1] (human, in vivo, 800 mg, Group 1 Day 3, AL‐335 alone, mean (SD)); 324 ng·h/mL in series [1] (human, in vivo, 800 mg, Group 2 Day 3, AL‐335 alone, mean (SD)); 1000 ng·h/mL in series [1] (human, in vivo, Group 1 Day 13, AL‐335 + SMV, mean (SD)); 2080 ng·h/mL in series [1] (human, in vivo, Group 1 Day 23, AL‐335 + ODV + SMV, mean (SD)); 1330 ng·h/mL in series [1] (human, in vivo, Group 2 Day 13, AL‐335 + ODV, mean (SD)); 2920 ng·h/mL in series [1] (human, in vivo, Group 2 Day 23, AL‐335 + ODV + SMV, mean (SD)). The Tmax is 2 h in series [1] (human, in vivo, 800 mg, Group 1 Day 3, AL‐335 alone, median (range)); 2 h in series [1] (human, in vivo, 800 mg, Group 2 Day 3, AL‐335 alone, median (range)); 2 h in series [1] (human, in vivo, Group 1 Day 13, AL‐335 + SMV, median (range)); 2 h in series [1] (human, in vivo, Group 1 Day 23, AL‐335 + ODV + SMV, median (range)); 2 h in series [1] (human, in vivo, Group 2 Day 13, AL‐335 + ODV, median (range)); 3 h in series [1] (human, in vivo, Group 2 Day 23, AL‐335 + ODV + SMV, median (range)). The half-life in series [1] (human, in vivo, 800 mg, t 1/2, Group 1 Day 3, AL‐335 alone, mean (SD)) is 0.61 h; in series [1] (human, in vivo, 800 mg, t 1/2, Group 2 Day 3, AL‐335 alone, mean (SD)), 0.69 h; in series [1] (human, in vivo, t 1/2, Group 1 Day 13, AL‐335 + SMV, mean (SD)) it was 0.64 h; in series [1] (human, in vivo, t 1/2, Group 1 Day 23, AL‐335 + ODV + SMV, mean (SD)), 0.69 h; in series [1] (human, in vivo, t 1/2, Group 2 Day 13, AL‐335 + ODV, mean (SD)) it was 0.62 h; in series [1] (human, in vivo, t 1/2, Group 2 Day 23, AL‐335 + ODV + SMV, mean (SD)), 0.84 h. Besides, the “AUC 0‐24 h increase” value turned out to be 3 fold in series [1] (odalasvir given alone with AL‐335 (abstract)) and 4 fold in series [1] (simeprevir given alone with AL‐335 (abstract)). Besides, the “inhibition potential for CYPs” value in series [2] is given as “low inhibition potential”. Besides, the “interaction with host polymerases” value in series [3] was “do not interact”. Further, the BCRP substrate status entry in series [4] is on record as “substrate”. The “OATP1B1/1B3 substrate / inhibitor status” value in the series with OATP1B1/1B3 (ref data on file) is recorded as “neither a substrate nor an inhibitor”.

As to `C[C@]1(O)[C@H](n2ccc(=O)[nH]c2=O)O[C@](F)(CO)[C@H]1O` [ALS‐022227], in series [1] (human, in vivo), the “difference in T max between any of the treatment combinations” value is on record as “No clinically relevant difference” and the “t 1/2” value is reported as 6.0 (0.5) h. For the same compound, the “P‐glycoprotein substrate / inhibitor status” value in the series on P‐glycoprotein is “neither substrates nor inhibitors”. The “OATP1B1/1B3 substrate / inhibitor status” value in the series with OATP1B1/1B3 was “neither substrates nor inhibitors”.

Take `COC(=O)N[C@H](C(=O)N1[C@H](c2nc3cc(-c4cc5ccc4CCc4ccc(c(-c6ccc7[nH]c([C@@H]8C[C@@H]9CCCC[C@@H]9N8C(=O)[C@@H](NC(=O)OC)C(C)C)nc7c6)c4)CC5)ccc3[nH]2)C[C@@H]2CCCC[C@@H]21)C(C)C` [odalasvir]: in series [1] (human, in vivo), the “AUC0‐24 h” value was 8694 (3956) ng.h/mL; the C max is listed as 582 (221) ng/mL; the T max is reported as 5.00 (5.0‐7.0) h; the “increase in exposure (C max, C min, AUC0‐24 h)” value is on record as 1.5‐ to 2. In series [1] (in vivo), the C min is listed as 235 (132) ng/mL, the Clast is 287 (150) ng/mL and the T last is reported as 23.9 (23.9‐24.0) h. In addition, in series [5], the “clearance route and metabolism” value was “primarily cleared by biliary secretion and undergoes minimal metabolism”; the “drug‐drug interactions (DDIs)” value was “No clinically significant drug‐drug interactions”; the “terminal elimination half‐life” value is given as “approximately 250 hours”.
